What all share (format): cell-based, human
The subject of one experiment is HCT116-S100A4 cells. In words: Boyden chamber transwell migration assay. Particulars: 1 μM, 24 h, statistically not significant. The protocol:
(§1) HCT116, SW620, LS174T, SW480 and DLD-1 cells were used in cell migration and invasion analysis performed with Boyden chamber assay. 400 μL containing 2.5×10^5 cells were seeded into each transwell chamber with filter membranes of 12.0 μm pore size (Millipore, Schwalbach, Germany). For invasion filter membranes were coated with 50 μL Matrigel (diluted 1:3 in RPMI-1640; BD Biosciences) 10 minutes before cells were seeded. Fresh medium (600 μL) were added to the bottom chamber and cells were allowed to attach to the insets for 15 hours. Both chambers were treated with 1 μM niclosamide or the respective amount of DMSO and incubated at 37° C. and 5% CO2 in a humidified incubator for 24 hours. Afterwards insets were removed and cells that had migrated through the membrane to the lower chamber were trypsinized and counted in a Neubauer chamber (LO-Laboroptik, Bad Homburg, Germany). Each well was counted ten times. Each migration or invasion experiment was performed in duplicate. The average number of migrated or invaded cells was determined for at least three independent experiments.
(§2) (A) Cell migration of HCT116-vector and HCT116-S100A4 cells exposed to niclosamide treatment. Cells were treated with 1 μM niclosamide for 24 hours and migration rates were measured with Boyden chamber assay. (B) Cell invasion of HCT116-vector and HCT116-S100A4 cells exposed to niclosamide treatment. Cells were treated with 1 μM niclosamide for 24 hours and cell invasion was determined by Boyden chamber assay. (C) Directed migration of HCT116-vector and HCT116-S100A4 cells exposed to niclosamide treatment analyzed by wound healing assay. Wounds of 300 μM width were set in a 60% confluent monolayer of HCT116-vector or HCT116-S100A4 cells on day 1. Cells were treated daily with 1 μM niclosamide for 4 days. Microphotographs of day 4 are presented here with black lines indicating margins of entered wound of day 1; scale bar represents 200 μM. Data represents three independent experiments. (D) Adhesive cell proliferation of HCT116-vector and HCT116-S100A4 cells exposed to niclosamide treatment. Cells were treated daily with 1 μM niclosamide and cell viability was determined with MTT assay. (E) Anchorage-independent cell growth of HCT116-vector and HCT116-S100A4 cells exposed to niclosamide treatment. Cells were plated as single cells into 0.33% (w/v) agarose and treatment (solvent or 1 μM niclosamide) containing medium. After 7 days colonies were visualized by light microscopy at 10× (overview) and 40× (single colony) magnification. (F) Quantification of colonies formed. Number of colonies (of more than 4 cells) was counted and normalized to solvent-treated HCT116-vector cells. Differences of niclosamide vs. solvent-treated cells were analyzed by Student's t test. […]

A further experiment has as its system HCT116-vector cells. In words: Boyden chamber transwell migration assay. To be noted: 24 h. How it is done: as §1, §2
For another experiment, the system named is DLD-1 cells. In words: Boyden chamber invasion assay (Matrigel). To be noted: 1 μM, 24 h. The protocol:
as §1
(§3) (A) S100A4 expression under niclosamide treatment. Cells were treated with 1 μM niclosamide for 24 hours. S100A4 expression was analyzed with qRT-PCR and immunoblot. (B) Cell migration under niclosamide treatment. Migration rates of cells treated with 1 μM niclosamide for 24 hours were determined in a Boyden chamber assay values were normalized to solvent-treated SW620 cells. (C) Cell invasion under niclosamide treatment. Cells were seeded onto Matrigel covered transwells and treated with 1 μM niclosamide for 24 hours. Invaded cells in the lower chamber were counted and normalized to solvent-treated SW620 cells. Differences in solvent vs. niclosamide-treated cells were analyzed by Student's t test. Data represent mean±SE of at least two independent experiments each performed in triplicate. (D) Directed migration under niclosamide treatment. Wounds of 300 μM width were set in a 60% confluent monolayer of cells on day 1. Cells were treated daily with 1 μM niclosamide for 4 days. Microphotographs of day 4 are presented here with black lines indicating margins of the wound on day 1; scale bar represents 200 μM. Directed migration data shown are representatives of three independent experiments. (E) Adhesive cell proliferation under niclosamide treatment. Cells were treated daily with 1 μM niclosamide. The amount of viable cells per well was determined by MTT assay. (F) Anchorage-independent cell growth under niclosamide treatment. Cells were plated as single cells into 0.33% (w/v) agarose and treatment (solvent or 1 μM niclosamide) containing medium. After 7 days colonies were visualized by light microscopy at 10× (overview) and 40× (single colony) magnification. (G) Quantification of colonies formed. Number of colonies (of more than 4 cells) was counted and normalized to solvent-treated SW620 cells. Differences in solvent vs. niclosamide-treated cells were analyzed by Student's t test. Data represent mean mean±SE of at least two independent experiments each performed in duplicates.

Another experiment concerns LS174T cells. The experiment is described as follows: Boyden chamber invasion assay (Matrigel). To be noted: 1 μM, 24 h. How it is done: as §1, §3
In another experiment the test system is SW480 cells. In words: Boyden chamber invasion assay (Matrigel). Particulars: 1 μM, 24 h. How it is done:
as §1, §3

The subject of another experiment is SW620 cells. The experiment is described as follows: Boyden chamber invasion assay (Matrigel). Particulars: 1 μM, 24 h. The protocol: as §1, §3

We go through one molecule from patent US11331290B2, “Niclosamide for the treatment of cancer metastasis” (Max-Delbrück-Centrum für Molekulare Medizin in der …, priority 2011, dated 2022).

As to `O=C(Nc1ccc([N+](=O)[O-])cc1Cl)c1cc(Cl)ccc1O` [niclosamide, 2′,5-dichloro-4′-nitrosalicylanilide], the “migration rate, mean %” value in the experiment with HCT116-S100A4 cells (solvent control 145.0%) stood at 117.0%. Also, the “migration, mean difference control vs niclosamide” value is reported as 28% with HCT116-S100A4 cells and 57.0% in the experiment with HCT116-vector cells (1 μM). The activity at 1 µM in the experiment with HCT116-vector cells (Homo sapiens, read-out: number of migrated cells, mean % of control) was 43%. For the same molecule, in the experiment with DLD-1 cells, the invasion rate result is given as “not affected”. Also, the “invasion, mean difference control vs niclosamide” value in the experiment with LS174T cells amounted to 39.5%; with SW480 cells it was 34.9%; in the experiment on SW620 cells it was 74.9%. The “cell invasion, mean % (normalized to solvent-treated SW620 cells)” value in the experiment with LS174T cells (solvent control 63.2%) is reported as 23.6%; in the experiment with SW480 cells (solvent control 47.7%) it was 12.8%; in the experiment with SW620 cells (solvent control 100.0%) it was 25.1%.
